72 compounds from PubChem BioAssay AID1549 (Sanford-Burnham Center for Chemical Genomics, 2009) can be followed below.

Active and inactive are the calls of the source. No rule for the calls is given here.

This test addresses Influenza A virus M2 proton channel (A/TW/4845/1999 H1N1). Put plainly: NMR binding screen, influenza A virus M2 proton channel, Kd (AID 1549). The following applies: M2 protein.
For `Cc1nc(NC(=O)c2cccnc2)ccc1Br`, the Kd (usually a measure of binding affinity in units of concentration) is > 4 mM (inactive).
The same measure for `CC(C)=CCOc1c2occc2cc2ccc(=O)oc12`: > 4 mM (inactive); for `Cc1cc(OC(=O)c2ccco2)c([N+](=O)[O-])c(=O)[nH]1`: > 4 mM (inactive).
The same measure for `CC(C)=CCOc1cc2oc(=O)ccc2cc1O`: > 4 mM (inactive).
For `CN1CCN(CC(=O)Nc2ccccc2)CC1` the value was > 4 mM (inactive); for `COC(=O)C1CSCC1=O` (configuration not stated), > 4 mM (inactive); for `Cc1ccc(S(=O)(=O)CC(=O)N2CCCC2)cc1`, > 4 mM (inactive).
For the compound `COc1ccc(/C=C/c2cc(O)cc(O)c2)cc1`, the Kd was > 4 mM (inactive).
The same measure for `Cn1cnc([N+](=O)[O-])c1Sc1ncnc2nc[nH]c12`: > 4 mM (inactive); for `COc1c2c(cc3c1OCO3)CCN(C)C2`: > 4 mM (inactive); for `Cc1nnc(SCC(=O)N2CCc3ccccc32)s1`: > 4 mM (inactive).
Take `O=C1c2ccccc2C(=O)N1CCc1ccccn1`: the Kd is > 4 mM (inactive).
For `CC1(C)CC(=O)c2cnn(-c3nc4ccccc4[nH]3)c2C1` the value was > 4 mM (inactive); for `COc1ccc(/C=N/n2cn[nH]c2=S)cc1`, > 4 mM (inactive); for `COc1ccccc1-c1nc(-c2ccc(C)nc2OC)no1`, > 4 mM (inactive).
Regarding `Cn1ccc(NC(=S)Nc2cccc([N+](=O)[O-])c2)n1`, the Kd was > 4 mM (inactive).
For `Cc1ccc(-c2nnc3sc(-c4ccncc4)nn23)cc1` the value was > 4 mM (inactive); for `O=c1cnnc(SCCc2ccccc2)[nH]1`, > 4 mM (inactive); for `CC1(C)C=CC(=O)[C@@]2(C)C1CC(=O)[C@]1(C)C2CC[C@@]2(C)[C@H](c3ccoc3)OC(=O)C3OC321` (some centres not stated), > 4 mM (inactive).
For `Cc1cc(N)n(-c2ccccc2)n1` the value was > 4 mM (inactive); for `CCCS(=O)(=O)N1CCN(c2ccccc2F)CC1`, > 4 mM (inactive); for `Fc1ccc2onc(C3CCNCC3)c2c1`, > 4 mM (inactive).
Regarding `O=C(Nc1ccccc1)N1CCOCC1`, the Kd was > 4 mM (inactive).
The same measure for `COc1ccc2c(c1OC)C(=O)OC2[C@H]1c2c(cc3c(c2OC)OCO3)CCN1C` (some centres not stated): > 4 mM (inactive).
The same measure for `C[C@]12CC(=O)C3C(CC[C@@H]4C[C@H](O)CC[C@]34C)C1CC[C@]2(O)C(=O)CO` (some centres not stated): > 4 mM (inactive).
For `O=C1NC(=S)N/C1=C/c1ccsc1` the value was > 4 mM (inactive).
Turning to `C=C[C@@](C)(O)CCC1C(=C)C[C@H](OC(C)=O)C2C(C)(C)CCCC12C` (some centres not stated), the Kd is > 4 mM (inactive).
For `NC(=O)c1ccc(N2C(=O)CCC2=O)cc1Cl` the value was > 4 mM (inactive).
For `N#Cc1cc2c(nc1SCc1ccncc1)CCC2` the value was > 4 mM (inactive).
For `CCC(C)C(=O)OC1[C@@H]2CC3=C4CC(=O)O[C@@H](c5ccoc5)[C@]4(C)CCC3C(C)(C2=O)[C@@H](CC(=O)OC)C1(C)C` (some centres not stated) the value was > 4 mM (inactive); for `CC(=O)Nc1ccn(Cc2c(F)cccc2Cl)n1`, > 4 mM (inactive); for `CC(=O)Nc1cccc(-c2nc3ccccc3c(=O)o2)c1`, > 4 mM (inactive).
For `COc1cc2c(cc1OC)[C@@H]1C(=O)c3ccc4c(c3O[C@@H]1CO2)C=CC(C)(C)O4`, the Kd is > 4 mM (inactive).
For `OC1CCN(C(=S)NC2CC2)CC1` the value was > 4 mM (inactive); for `O=c1[nH]cnc2c1nnn2Cc1ccccc1`, > 4 mM (inactive).
As to `COc1cc(O)cc(/C=C/c2ccccc2)c1`, the Kd was > 4 mM (inactive).
For `CC(=O)N1N=C(N)SC1c1cccnc1` (configuration not stated), the Kd is > 4 mM (inactive).
Consider `O=C(O)Cn1cnc2ccccc2c1=O`, for which the Kd was > 4 mM (inactive).
On to `OCc1ccc(-c2cccs2)s1`, for which the Kd was > 4 mM (inactive).
Turning to `NC(=O)C1CCN(C(=O)CN2CCc3ccccc32)CC1`, the Kd is > 4 mM (inactive).
For `CC(=O)CNc1cc(CNC(C)=O)c(C)cc1C` the value was > 4 mM (inactive); for `CC(=O)OC1CC[C@@]2(C)C(CCC3C2CC[C@]2(C)C(C4=CC(=O)OC4)C(OC(C)=O)CC32O)C1` (some centres not stated), > 4 mM (inactive).
The same measure for `O=C(O)c1ccc(N2CCOCC2)nc1`: > 4 mM (inactive).
The same measure for `COc1cc(OC)c(-c2c(OC)cc(OC)cc2OC)c(OC)c1`: > 4 mM (inactive).
`O=C(Nc1ccon1)c1csc2c1CCCC2`: the Kd is > 4 mM (inactive).
The same measure for `C=C1C[C@]23C[C@@]1(O)CC[C@H]2[C@@]12C=C[C@H](O)C(C)(C(=O)O1)[C@H]2[C@@H]3C(=O)O`: > 4 mM (inactive); for `Cc1occc1C(=O)Nc1nnc(C2CCCCC2)s1`: > 4 mM (inactive).
With `COc1ccc(-c2coc3cc(OC)cc(OC)c3c2=O)cc1`, the Kd is > 4 mM (inactive).
Regarding `O=C(O)CCC(=O)NCc1cccnc1`, the Kd is > 4 mM (inactive).
For `O=C1CCC(C(=O)NCc2cccnc2)N1` (configuration not stated) the value was > 4 mM (inactive); for `O=C1c2cccnc2C(=O)N1Cc1ccco1`, > 4 mM (inactive); for `CCOC(=O)C1CCN(Cc2ccccc2)CC1=O` (configuration not stated), > 4 mM (inactive).
For `C[C@H]1C(=O)CCC2[C@]3(C)CC[C@@]4(C)C5CC(C)(C)CC[C@]5(C)CC[C@]4(C)C3CC[C@@]21C` (some centres not stated) the value was > 4 mM (inactive).
The same measure for `OCc1ccc2nsnc2c1`: > 4 mM (inactive).
Take `O=C1CCCC2C3CC(CN12)[C@@H]1CCCCN1C3` (some centres not stated): the Kd is > 4 mM (inactive).
For `COC(=O)c1cncc(C(=O)OC)c1` the value was > 4 mM (inactive); for `CC(C)(C)c1cc(CN)c(C(=O)O)o1`, > 4 mM (inactive).
The same measure for `Cc1cc[n+](-c2nc([O-])sc2C=O)cc1`: > 4 mM (inactive).
`O=C(O)c1ccc2occc2c1`: the Kd was > 4 mM (inactive).
`COc1ccc(-c2nc3nc(C)cc(C)n3n2)cc1`: the Kd was > 4 mM (inactive).
For the compound `C[C@@H]1[C@H]2[C@H](O[C@@H]3O[C@H](CO)[C@@H](O)[C@H](O)[C@H]3O)OC=C(C(=O)O)[C@H]2C[C@@H]1O`, the Kd is > 4 mM (inactive).
Consider `Cc1nnsc1C(=O)Nc1ccccc1[N+](=O)[O-]`, for which the Kd is > 4 mM (inactive).
The same measure for `CC1=C(C(N)=O)C(c2ccccc2)NC(=O)N1` (configuration not stated): > 4 mM (inactive); for `CC(=O)c1c(O)cc(C)n(Cc2ccccc2)c1=O`: > 4 mM (inactive); for `CN1CCC(NC(=O)C2CCCO2)CC1` (configuration not stated): > 4 mM (inactive).
The same measure for `O=C1CC(=O)N(c2ccccc2F)C(=S)N1`: > 4 mM (inactive); for `Fc1ccc(Br)cc1/C=N/n1cnnc1`: > 4 mM (inactive).
The same measure for `COc1cccc(-c2cc(=O)c3cc(OC)ccc3o2)c1`: > 4 mM (inactive).
Consider `CNC(=O)C1CCCN(S(C)(=O)=O)C1` (configuration not stated), for which the Kd is > 4 mM (inactive).
Turning to `CSc1ccccc1NC(=O)c1ccc(C)o1`, the Kd is > 4 mM (inactive).
In the case of `OCc1ccc2ncccc2c1`, the Kd was > 4 mM (inactive).
Regarding `CCNC(=O)CC[C@H](N)C(=O)O`, the Kd is > 4 mM (inactive).
